The MIC is the lowest concentration that inhibits growth of the organism.

MIC data for nine compounds are collected here from DBAASP.

Test systems include Escherichia coli BL21; Staphylococcus aureus; Bacillus anthracis; Bacillus cereus; Escherichia coli; Bacillus subtilis.
Holding throughout (experiment): ≥ marks a high value that may be exact or a test limit, other limits are often not marked, values filed in µg/mL are converted to µM
In assay [1] the test system is Staphylococcus aureus USA 300.
Assay [2] relates to Pseudomonas aeruginosa PAO1.
Assay [3] relates to Streptococcus pyogenes M1T1 5448.
Assay [4] has as its system Micrococcus luteus ATCC 4698.
The subject of assay [5] is Escherichia coli DH5alpha.
Assay [6] has as its system Staphylococcus epidermidis ATCC 12228.
The subject of assay [7] is Staphylococcus aureus ATCC 6538.
Assay [8] concerns Klebsiella pneumoniae ATCC 13883.
Assay [9] deals with Enterococcus faecalis ATCC 29212.
In assay [10] the test system is Staphylococcus aureus ATCC 25923.
For assay [11], the system named is Salmonella enterica subsp. enterica serovar Typhimurium ATCC 14028.
The test system of assay [12] is Streptococcus pyogenes ATCC 19615.
The test system of assay [13] is Pseudomonas aeruginosa ATCC 27853.
Assay [14] relates to Pseudomonas aeruginosa ATCC 15442.
Assay [15] has as its system Staphylococcus aureus ATCC 29213.

Each structure is given as a SMILES string. ≈ marks a conversion by molar mass, not a printed value.

For `CC[C@H](C)[C@H](NC(=O)[C@H](Cc1c[nH]c2ccccc12)NC(=O)[C@H](CCC(N)=O)NC(=O)[C@H](CCCN=C(N)N)NC(=O)CNC(=O)[C@H](C)N)C(=O)N[C@@H](C)C(=O)N[C@@H](CCCCN)C(=O)N[C@@H](Cc1ccc(O)cc1)C(=O)N[C@@H](CC(C)C)C(=O)N[C@@H](CCCN=C(N)N)C(=O)N[C@@H](CCCN=C(N)N)C(=O)N[C@@H](CCC(=O)O)C(=O)N[C@H](C(=O)N[C@@H](CCCN=C(N)N)C(=O)N[C@@H](CCCCN)C(=O)N[C@@H](CCCN=C(N)N)C(=O)NCC(=O)N[C@@H](CCCN=C(N)N)C(=O)N[C@@H](CCCCN)C(=O)N[C@@H](C)C(=O)N[C@H](C(=O)N[C@H](C(=O)N[C@@H](C)C(=O)N[C@@H](Cc1c[nH]c2ccccc12)C(=O)O)[C@@H](C)CC)C(C)C)[C@@H](C)CC` [AGRQWIAKYLRREIRKRGRKAVIAW], the MIC is no less than 128 µM in assay [1], 16 µM (≈ 49.3 µg/mL) in assay [2], 4 µM (≈ 12.3 µg/mL) in [3] and 2 µM (≈ 6.17 µg/mL) with Escherichia coli BL21.
With `CC(C)C[C@H](NC(=O)[C@H](CO)NC(=O)[C@H](CC(C)C)NC(=O)[C@H](Cc1ccccc1)NC(=O)[C@@H](NC(=O)[C@H](CO)NC(=O)[C@H](CO)NC(=O)[C@H](CCCN=C(N)N)NC(=O)[C@H](Cc1ccccc1)NC(=O)[C@@H](NC(=O)[C@@H](NC(=O)[C@@H]1CCCN1C(=O)[C@H](CO)NC(=O)[C@H](C)N)[C@@H](C)O)C(C)C)C(C)C)C(=O)N[C@@H](Cc1ccccc1)C(=O)N[C@H](C(=O)N[C@H](C(=O)N[C@@H](C)C(=O)N[C@@H](CCCCN)C(=O)N[C@@H](CCCCN)C(=O)O)C(C)C)C(C)C` [ASPTVFRSSVFLSLFVVAKK], the MIC is greater than 117 µM in the assay with Staphylococcus aureus, no less than 117 µM in the assay on Bacillus anthracis, no less than 117 µM with Bacillus cereus and greater than 117 µM against Escherichia coli.
`CC(C)C[C@H](NC(=O)[C@H](CC(C)C)NC(=O)[C@H](CCCCN)NC(=O)[C@H](CO)NC(=O)[C@H](CC(C)C)NC(=O)[C@H](C)NC(=O)[C@H](CCCCN)NC(=O)[C@H](Cc1ccccc1)NC(=O)[C@H](C)NC(=O)[C@H](C)NC(=O)CNC(=O)[C@H](C)NC(=O)[C@@H](N)Cc1ccccc1)C(=O)O` [FAGAAFKALSKLL]: the minimum inhibitory concentration (MIC) is no less than 112 µM in assay [4], no less than 299 µM in assay [5], greater than 299 µM in [6] and 209 µM (≈ 280 µg/mL) in assay [7].
With `CC(C)C[C@H](NC(=O)CNC(=O)[C@H](Cc1ccccc1)NC(=O)[C@H](CC(C)C)NC(=O)[C@@H](N)Cc1ccccc1)C(=O)N[C@@H](C)C(=O)N[C@@H](CO)C(=O)N[C@@H](CCCCN)C(=O)N[C@H](C(=O)N[C@@H](Cc1ccccc1)C(=O)N1CCC[C@H]1C(=O)N[C@@H](C)C(=O)N[C@H](C(=O)N[C@@H](Cc1ccc(O)cc1)C(=O)N[C@@H](CS)C(=O)N[C@@H](CCCCN)C(=O)N[C@H](C(=O)N[C@H](C(=O)N[C@@H](CCCN=C(N)N)C(=O)N[C@@H](CCCCN)C(=O)O)[C@@H](C)O)C(C)C)C(C)C)C(C)C` [FLFGLASKVFPAVYCKVTRK], the MIC is 113 µM (≈ 256 µg/mL) against Staphylococcus aureus, no less than 56.3 µM against Bacillus anthracis, no less than 113 µM in the assay with Bacillus cereus and 28.1 µM (≈ 64 µg/mL) against Escherichia coli.
As for `CC[C@H](C)[C@H](NC(=O)[C@H](CC(C)C)NC(=O)[C@H](C)NC(=O)[C@@H]1CCCN1C(=O)[C@H](Cc1ccccc1)NC(=O)[C@@H](NC(=O)[C@H](CCCCN)NC(=O)[C@H](CO)NC(=O)[C@H](C)NC(=O)[C@@H](NC(=O)[C@H](CCCN=C(N)N)NC(=O)[C@H](Cc1ccccc1)NC(=O)[C@H](CC(C)C)NC(=O)[C@@H](N)Cc1ccccc1)C(C)C)C(C)C)C(=O)NCC(=O)N[C@@H](CCCCN)C(=O)N[C@@H](Cc1ccccc1)C(=O)N[C@@H](CCCCN)C(=O)N[C@@H](CCCCN)C(=O)N[C@@H](CCCCN)C(=O)O` [FLFRVASKVFPALIGKFKKK], the MIC in the assay with Staphylococcus aureus came to 6.88 µM (≈ 16 µg/mL); against Bacillus anthracis it was 6.88 µM (≈ 16 µg/mL); against Bacillus cereus, 6.88 µM (≈ 16 µg/mL); against Escherichia coli, 27.5 µM (≈ 64 µg/mL).
With `CC[C@H](C)[C@H](NC(=O)[C@@H](NC(=O)[C@H](C)NC(=O)[C@@H]1CCCN1C(=O)[C@H](Cc1ccccc1)NC(=O)[C@@H](NC(=O)[C@H](CCCCN)NC(=O)[C@H](CO)NC(=O)[C@H](C)NC(=O)[C@@H](NC(=O)[C@H](CCCN=C(N)N)NC(=O)[C@H](Cc1ccccc1)NC(=O)[C@H](CC(C)C)NC(=O)[C@H](C)NC(=O)CNC(=O)[C@@H](N)CC(C)C)C(C)C)C(C)C)C(C)C)C(=O)N[C@@H](CO)C(=O)N[C@@H](CCSC)C(=O)N[C@H](C(=O)N[C@@H](CCCCN)C(=O)O)C(C)C` [LGALFRVASKVFPAVISMVK], the MIC against Staphylococcus aureus worked out at 30 µM (≈ 64 µg/mL); against Bacillus anthracis, 30 µM (≈ 64 µg/mL); in the assay on Bacillus cereus it was 30 µM (≈ 64 µg/mL); in the assay with Escherichia coli, 120 µM (≈ 256 µg/mL).
Turning to `CC(C)C[C@H](NC(=O)[C@H](CCCN=C(N)N)NC(=O)[C@H](CO)NC(=O)[C@H](Cc1cnc[nH]1)NC(=O)[C@@H](N)CCCN=C(N)N)C(=O)N[C@@H](CCC(N)=O)C(=O)N[C@@H](CCCN=C(N)N)C(=O)N[C@@H](CCC(=O)O)C(=O)N1CCC[C@H]1C(=O)N[C@@H](CCC(N)=O)C(=O)N[C@H](C(=O)N[C@@H](CCC(N)=O)C(=O)N[C@@H](Cc1c[nH]c2ccccc12)C(=O)N[C@@H](CC(C)C)C(=O)N[C@@H](CCC(=O)O)C(=O)N[C@@H](CCC(N)=O)C(=O)N[C@@H](CCC(N)=O)C(=O)N[C@H](C(=O)N[C@@H](C)C(=O)N[C@@H](CCCCN)C(=O)N[C@@H](CCCN=C(N)N)C(=O)N[C@@H](CCCN=C(N)N)C(=O)N[C@H](C(=O)N[C@@H](CCCCN)C(=O)N[C@@H](CCCN=C(N)N)C(=O)O)[C@@H](C)O)C(C)C)C(C)C` [RHSRLQREPQVQWLEQQVAKRRTKR], the MIC in [8] is no less than 100 µM; in assay [9], greater than 100 µM; in assay [10], greater than 100 µM; in assay [11], greater than 100 µM; against Bacillus subtilis, no less than 100 µM; in assay [12], no less than 100 µM. Also, the MIC (in assay [13]; with Escherichia coli) was greater than 100 µM each time.
With `CC[C@H](C)[C@H](NC(=O)[C@H](C)NC(=O)[C@@H](N)C(C)C)C(=O)N[C@@H](C)C(=O)N[C@@H](CC(C)C)C(=O)N[C@@H](CCCCN)C(=O)N[C@@H](C)C(=O)N[C@@H](C)C(=O)N[C@@H](C)C(=O)N[C@@H](Cc1ccc(O)cc1)C(=O)N[C@@H](Cc1cnc[nH]1)C(=O)N[C@H](C(=O)N[C@@H](Cc1cnc[nH]1)C(=O)N[C@@H](CCCCN)C(=O)N[C@@H](CCC(=O)O)C(=O)O)[C@@H](C)O` [VAIALKAAAYHTHKE], the MIC was 78.9 µM (≈ 128 µg/mL) in assay [9], no less than 78.9 µM in assay [14] and 39.4 µM (≈ 64 µg/mL) in assay [15].
On to `CC[C@H](C)[C@H](NC(=O)[C@H](CCCN=C(N)N)NC(=O)[C@H](C)NC(=O)[C@H](CCCCN)NC(=O)[C@H](CCCCN)NC(=O)CNC(=O)[C@H](Cc1ccccc1)NC(=O)[C@H](CCCCN)NC(=O)[C@H](CCCN=C(N)N)NC(=O)[C@H](CC(C)C)NC(=O)[C@H](CCC(=O)O)NC(=O)[C@H](CCC(=O)O)NC(=O)[C@H](CCCCN)NC(=O)[C@H](CC(C)C)NC(=O)[C@H](Cc1ccc(O)cc1)NC(=O)[C@H](CC(C)C)NC(=O)[C@@H](NC(=O)[C@H](CC(C)C)NC(=O)[C@H](C)NC(=O)[C@H](CCC(N)=O)NC(=O)[C@H](CCCN=C(N)N)NC(=O)CNC(=O)[C@@H](N)Cc1c[nH]c2ccccc12)[C@@H](C)O)C(=O)N[C@@H](C)C(=O)N[C@@H](Cc1c[nH]c2ccccc12)C(=O)O` [WGRQALTLYLKEELRKFGKKARIAW], for which the results for the MIC (in assay [2]; in assay [3]; against Escherichia coli BL21) were greater than 128 µM, 0.25 µM (≈ 0.766 µg/mL) and 16 µM (≈ 49 µg/mL), respectively.
